# What was measured:
# Assay type in all cases: in vivo
# [1] = test system: large crabgrass (Digitaria sanguinalis); experiment: Test C; set-up: key: 0 was no effect; 100 was complete control; details: PREEMERGENCE
# [2] = test system: ivyleaf morningglory (Ipomoea hederacea); experiment: Test C; details: PREEMERGENCE
# [3] = test system: wild poinsettia (Euphorbia heterophylla); experiment: Test C; details: PREEMERGENCE
# [4] = test system: eastern black nightshade (Solanum ptycanthum); experiment: Test C; set-up: key: 0 was no effect; 100 was complete control; details: PREEMERGENCE
# [5] = test system: arrowleaf sida (Sida rhombifolia); experiment: Test C; set-up: key: 0 was no effect; 100 was complete control; details: PREEMERGENCE
# [6] = test system: ladysthumb smartweed (Polygonum persicaria); experiment: Test C; details: PREEMERGENCE
# [7] = test system: Spanishneedles (Bidens bipinnata); experiment: Test E pre-/postemergence/post directed
# From the text: (§1) Seeds, tubers, or plant parts of alexandergrass (Brachiaria plantaginea), annual bluegrass (Poa annua), arrowleaf sida (Sida rhombifolia), barnyardgrass (Echinochloa crus-galli), bermudagrass (Cynodon dactylon), citrus (Citrus sinensis), common chickweed (Stellaria media), common purslane (Portulaca oleracea), common ragweed (Ambrosia elatior), common groundsel (Senecio vulgaris), dallisgrass (Paspalum dilatatum), goosegrass (Eleusine indica), green foxtail (Setaria viridis), guineagrass (Panicum maximum), itchgrass (Rottboellia exaltata), johnson grass (Sorghum halepense), kochia (Kochia scoparia), large crabgrass (Digitaria sanguinalis), leafy spurge (Euphorbia esula), pitted morningglory (Ipomoea lacunosa), purple nutsedge (Cyperus rotundus), quackgrass (Agropyron repens), Russian thistle (Salsola kali), sandbur (Cenchrus echinatus), sourgrass (Trichachne insularis), Spanishneedles (Bidens bipinnata), sugarcane (Saccharum officinarum), surinam grass (Brachiaria decumbens) and tall mallow (Malva sylvestris) were planted into greenhouse pots of flats containing greenhouse planting medium. Plant species were grown grown in separate pots or individual compartments. Preemergence applications were made within one day of planting the seed or plant part. Postemergence applications were applied when the plants were in the two to four leaf stage (three to twenty cm).
# (§2) Test chemicals were formulated in a non-phytotoxic solvent mixture which included a surfactant and applied preemergence to the soil surface, postemergence to the plants or as a post directed spray to plants and soil at the base of the target species. Untreated control plants and treated plants were placed in the greenhouse and visually evaluated for injury 13 to 21 days after herbicide application. Plant response ratings, summarized in Table E, are based on a 0 to 100 scale where 0 is no injury and 100 is complete control. A dash (−) response means no test result.
# [8] = test system: large crabgrass (Digitaria sanguinalis); experiment: Test E pre-/postemergence/post directed
# From the text: as §1, §2
# [9] = test system: common ragweed (Ambrosia elatior); experiment: Test E pre-/postemergence/post directed
# From the text: as §1, §2
# [10] = test system: bermudagrass (Cynodon dactylon); experiment: Test E pre-/postemergence/post directed
# From the text: as §1, §2
# [11] = test system: sandbur (Cenchrus echinatus); experiment: Test E pre-/postemergence/post directed
# From the text: as §1, §2
# [12] = test system: johnson grass (Sorghum halepense); experiment: Test E pre-/postemergence/post directed
# From the text: as §1, §2
# [13] = test system: pitted morningglory (Ipomoea lacunosa); experiment: Test E pre-/postemergence/post directed
# From the text: as §1, §2
# [14] = test system: common groundsel (Senecio vulgaris); experiment: Test E pre-/postemergence/post directed; details: POSTEMERGENCE, Rate 250 g/ha
# From the text: as §1, §2
# [15] = test system: itchgrass (Rottboellia exaltata); experiment: Test E pre-/postemergence/post directed
# From the text: as §1, §2
# [16] = test system: alexandergrass (Brachiaria plantaginea); experiment: Test E pre-/postemergence/post directed
# From the text: as §1, §2
# [17] = test system: lambsquarters (Chenopodium album); experiment: Test C; set-up: key: 0 was no effect; 100 was complete control; details: PREEMERGENCE
# [18] = test system: velvetleaf (Abutilon theophrasti); experiment: Test C; details: PREEMERGENCE
# [19] = test system: purple nutsedge (Cyperus rotundus); experiment: Test E pre-/postemergence/post directed; set-up: key: 0 is no injury; 100 is complete control
# From the text: as §1, §2
compound,measurement,setting,value
COc1cnc(-c2ccc(C(F)(F)F)cc2)nc1Cc1cccc(C(F)(F)F)c1 [Compound 23],"Plant response rating, Large crabgrass",[1]; Rate 35 g/ha,100
same,"Plant response rating, Large crabgrass",[1]; Rate 70 g/ha,100
same,"Plant response rating, Large crabgrass",[1]; Rate 140 g/ha,100
same,"Plant response rating, I. morningglory",[2]; Rate 35 g/ha,5
same,"Plant response rating, I. morningglory",[2]; Rate 140 g/ha,40
same,"Plant response rating, Wild poinsettia",[3]; Rate 35 g/ha,5
same,"Plant response rating, Wild poinsettia",[3]; Rate 70 g/ha,5
same,"Plant response rating, Wild poinsettia",[3]; Rate 140 g/ha,10
same,"Plant response rating, E. blacknightsh",[4]; Rate 35 g/ha,95
same,"Plant response rating, E. blacknightsh",[4]; Rate 70 g/ha,100
same,"Plant response rating, E. blacknightsh",[4]; Rate 140 g/ha,100
same,"Plant response rating, Arrowleaf sida",[5]; Rate 35 g/ha,80
same,"Plant response rating, Arrowleaf sida",[5]; Rate 70 g/ha,100
same,"Plant response rating, Arrowleaf sida",[5]; Rate 140 g/ha,100
same,"Plant response rating, Ladysthumb",[6]; Rate 35 g/ha,5
same,"Plant response rating, Ladysthumb",[6]; Rate 70 g/ha,80
same,"Plant response rating, Ladysthumb",[6]; Rate 140 g/ha,80
same,"Plant response rating, Spanishneedles","[7]; POSTEMERGENCE, Rate 250 g/ha",10
same,"Plant response rating, Spanishneedles","[7]; PREEMERGENCE, Rate 32 g/ha",60
same,"Plant response rating, Spanishneedles","[7]; PREEMERGENCE, Rate 64 g/ha",70
same,"Plant response rating, Large crabgrass","[8]; POSTEMERGENCE, Rate 250 g/ha",40
same,"Plant response rating, Large crabgrass","[8]; PREEMERGENCE, Rate 32 g/ha",98
same,"Plant response rating, Large crabgrass","[8]; PREEMERGENCE, Rate 64 g/ha",98
same,"Plant response rating, Com. ragweed","[9]; POSTEMERGENCE, Rate 250 g/ha",40
same,"Plant response rating, Com. ragweed","[9]; PREEMERGENCE, Rate 32 g/ha",50
same,"Plant response rating, Com. ragweed","[9]; PREEMERGENCE, Rate 64 g/ha",70
same,"Plant response rating, Bermudagrass","[10]; POSTEMERGENCE, Rate 250 g/ha",10
same,"Plant response rating, Bermudagrass","[10]; PREEMERGENCE, Rate 32 g/ha",90
same,"Plant response rating, Bermudagrass","[10]; PREEMERGENCE, Rate 64 g/ha",98
same,"Plant response rating, Bermudagrass","[10]; PREEMERGENCE, Rate 125 g/ha",98
same,"Plant response rating, Bermudagrass","[10]; PREEMERGENCE, Rate 250 g/ha",98
same,"Plant response rating, Sandbur","[11]; POSTEMERGENCE, Rate 250 g/ha",20
same,"Plant response rating, Sandbur","[11]; PREEMERGENCE, Rate 32 g/ha",85
same,"Plant response rating, Sandbur","[11]; PREEMERGENCE, Rate 64 g/ha",80
same,"Plant response rating, Sandbur","[11]; PREEMERGENCE, Rate 125 g/ha",80
same,"Plant response rating, Sandbur","[11]; PREEMERGENCE, Rate 250 g/ha",98
same,"Plant response rating, Johnsongrass","[12]; POSTEMERGENCE, Rate 250 g/ha",65
same,"Plant response rating, Johnsongrass","[12]; PREEMERGENCE, Rate 32 g/ha",70
same,"Plant response rating, Johnsongrass","[12]; PREEMERGENCE, Rate 64 g/ha",80
same,"Plant response rating, Johnsongrass","[12]; PREEMERGENCE, Rate 125 g/ha",80
same,"Plant response rating, Johnsongrass","[12]; PREEMERGENCE, Rate 250 g/ha",90
same,"Plant response rating, P. morninglory","[13]; POSTEMERGENCE, Rate 250 g/ha",40
same,"Plant response rating, P. morninglory","[13]; PREEMERGENCE, Rate 125 g/ha",50
same,"Plant response rating, P. morninglory","[13]; PREEMERGENCE, Rate 250 g/ha",80
same,"Plant response rating, Com. groundsel",[14],40
same,"Plant response rating, Itchgrass","[15]; POSTEMERGENCE, Rate 250 g/ha",80
same,"Plant response rating, Itchgrass","[15]; PREEMERGENCE, Rate 32 g/ha",30
same,"Plant response rating, Itchgrass","[15]; PREEMERGENCE, Rate 64 g/ha",60
same,"Plant response rating, Itchgrass","[15]; PREEMERGENCE, Rate 125 g/ha",70
same,"Plant response rating, Itchgrass","[15]; PREEMERGENCE, Rate 250 g/ha",70
same,"Plant response rating, Alexandergrass","[16]; POSTEMERGENCE, Rate 250 g/ha",80
same,"Plant response rating, Alexandergrass","[16]; PREEMERGENCE, Rate 125 g/ha",85
same,"Plant response rating, Alexandergrass","[16]; PREEMERGENCE, Rate 250 g/ha",98
same,"Plant response rating, Lambsquarters",[17]; Rate 35 g/ha,60
same,"Plant response rating, Lambsquarters",[17]; Rate 70 g/ha,100
same,"Plant response rating, Lambsquarters",[17]; Rate 140 g/ha,100
same,"Plant response rating, Velvetleaf",[18]; Rate 35 g/ha,50
same,"Plant response rating, Velvetleaf",[18]; Rate 140 g/ha,50
same,"Plant response rating, Purple nutsedge","[19]; POSTEMERGENCE, Rate 250 g/ha",0
same,"Plant response rating, Purple nutsedge","[19]; PREEMERGENCE, Rate 32 g/ha",0
same,"Plant response rating, Purple nutsedge","[19]; PREEMERGENCE, Rate 64 g/ha",0
same,"Plant response rating, Purple nutsedge","[19]; PREEMERGENCE, Rate 125 g/ha",0
same,"Plant response rating, Purple nutsedge","[19]; PREEMERGENCE, Rate 250 g/ha",0

# From patent US6525001B1, “Substituted pyrimidine and pyridine herbicides” (Mid-American Commercialization Corporation, priority 1997, dated 2003)
